Measurements: paper PMC12454493, “Insight on novel sulfamoylphenyl pyrazole derivatives as anticancer carbonic anhydrase inhibitors” (Molecular Diversity, 2024)
Where “and” joins values, the source holds several entries; their conditions need not be identical. Equal entries are not always repeated.

Experiments:
[1] = system: HL-60(TB); assay: NCI-60 one-dose SRB screen (Leukemia); format: cell-based; conditions: Homo sapiens, single dose 10 µM, 48 h, read-out: Growth inhibition percent (GI %)
[2] = system: SR; assay: NCI-60 one-dose SRB screen (Leukemia); format: cell-based; conditions: Homo sapiens, single dose 10 µM, 48 h, read-out: Growth inhibition percent (GI %)
[3] = system: K-562; assay: NCI-60 one-dose SRB screen (Leukemia); format: cell-based; conditions: Homo sapiens, K562, single dose 10 µM, 48 h, read-out: Growth inhibition percent (GI %)
[4] = system: MOLT-4; assay: NCI-60 one-dose SRB screen (Leukemia); format: cell-based; conditions: Homo sapiens, single dose 10 µM, 48 h, read-out: Growth inhibition percent (GI %)
[5] = system: CCRF-CEM; assay: NCI-60 one-dose SRB screen (Leukemia); format: cell-based; conditions: Homo sapiens, single dose 10 µM, 48 h, read-out: Growth inhibition percent (GI %)
[6] = system: RPMI-8226; assay: NCI-60 one-dose SRB screen (Leukemia); format: cell-based; conditions: Homo sapiens, single dose 10 µM, 48 h, read-out: Growth inhibition percent (GI %)
[7] = system: SF-268; assay: NCI-60 one-dose SRB screen (CNS Cancer); format: cell-based; conditions: Homo sapiens, single dose 10 µM, 48 h, read-out: Growth inhibition percent (GI %)
[8] = system: SF-539; assay: NCI-60 one-dose SRB screen (CNS Cancer); format: cell-based; conditions: Homo sapiens, single dose 10 µM, 48 h, read-out: Growth inhibition percent (GI %)
[9] = system: SNB-19; assay: NCI-60 one-dose SRB screen (CNS Cancer); format: cell-based; conditions: Homo sapiens, single dose 10 µM, 48 h, read-out: Growth inhibition percent (GI %)
[10] = system: U251; assay: NCI-60 one-dose SRB screen (CNS Cancer); format: cell-based; conditions: Homo sapiens, U-251, single dose 10 µM, 48 h, read-out: Growth inhibition percent (GI %)
[11] = system: SF-295; assay: NCI-60 one-dose SRB screen (CNS Cancer); format: cell-based; conditions: Homo sapiens, single dose 10 µM, 48 h, read-out: Growth inhibition percent (GI %)
[12] = system: SNB-75; assay: NCI-60 one-dose SRB screen (CNS Cancer); format: cell-based; conditions: Homo sapiens, single dose 10 µM, 48 h, read-out: Growth inhibition percent (GI %)
[13] = system: HOP-92; assay: NCI-60 one-dose SRB screen (Non-Small Cell Lung Cancer); format: cell-based; conditions: Homo sapiens, single dose 10 µM, 48 h, read-out: Growth inhibition percent (GI %)
[14] = system: HOP-62; assay: as above; format: cell-based; conditions: Homo sapiens, single dose 10 µM, 48 h, read-out: Growth inhibition percent (GI %)
[15] = system: NCI-H522; assay: as above; format: cell-based; conditions: Homo sapiens, single dose 10 µM, 48 h, read-out: Growth inhibition percent (GI %)
[16] = system: NCI-H23; assay: as above; format: cell-based; conditions: Homo sapiens, single dose 10 µM, 48 h, read-out: Growth inhibition percent (GI %)
[17] = system: A549/ATCC; assay: as above; format: cell-based; conditions: Homo sapiens, single dose 10 µM, 48 h, read-out: Growth inhibition percent (GI %)
[18] = system: NCI-H226; assay: as above; format: cell-based; conditions: Homo sapiens, single dose 10 µM, 48 h, read-out: Growth inhibition percent (GI %)
[19] = system: NCI-H460; assay: as above; format: cell-based; conditions: Homo sapiens, single dose 10 µM, 48 h, read-out: Growth inhibition percent (GI %)
[20] = system: NCI-H322M; assay: as above; format: cell-based; conditions: Homo sapiens, single dose 10 µM, 48 h, read-out: Growth inhibition percent (GI %)
[21] = system: EKVX; assay: as above; format: cell-based; conditions: Homo sapiens, single dose 10 µM, 48 h, read-out: Growth inhibition percent (GI %)
[22] = system: SW-620; assay: NCI-60 one-dose SRB screen (Colon Cancer); format: cell-based; conditions: Homo sapiens, single dose 10 µM, 48 h, read-out: Growth inhibition percent (GI %)
[23] = system: HCT-15; assay: NCI-60 one-dose SRB screen (Colon Cancer); format: cell-based; conditions: Homo sapiens, single dose 10 µM, 48 h, read-out: Growth inhibition percent (GI %)
[24] = system: HCC-2998; assay: NCI-60 one-dose SRB screen (Colon Cancer); format: cell-based; conditions: Homo sapiens, single dose 10 µM, 48 h, read-out: Growth inhibition percent (GI %)
[25] = system: KM12; assay: NCI-60 one-dose SRB screen (Colon Cancer); format: cell-based; conditions: Homo sapiens, single dose 10 µM, 48 h, read-out: Growth inhibition percent (GI %)
[26] = system: COLO 205; assay: NCI-60 one-dose SRB screen (Colon Cancer); format: cell-based; conditions: Homo sapiens, single dose 10 µM, 48 h, read-out: Growth inhibition percent (GI %)
[27] = system: HCT-116; assay: NCI-60 one-dose SRB screen (Colon Cancer); format: cell-based; conditions: Homo sapiens, single dose 10 µM, 48 h, read-out: Growth inhibition percent (GI %)
[28] = system: SK-MEL-5; assay: NCI-60 one-dose SRB screen (Melanoma); format: cell-based; conditions: Homo sapiens, single dose 10 µM, 48 h, read-out: Growth inhibition percent (GI %)
[29] = system: UACC-257; assay: NCI-60 one-dose SRB screen (Melanoma); format: cell-based; conditions: Homo sapiens, single dose 10 µM, 48 h, read-out: Growth inhibition percent (GI %)
[30] = system: MDA-MB-435; assay: NCI-60 one-dose SRB screen (Melanoma); format: cell-based; conditions: Homo sapiens, single dose 10 µM, 48 h, read-out: Growth inhibition percent (GI %)
[31] = system: UACC-62; assay: NCI-60 one-dose SRB screen (Melanoma); format: cell-based; conditions: Homo sapiens, single dose 10 µM, 48 h, read-out: Growth inhibition percent (GI %)
[32] = system: SK-MEL-2; assay: NCI-60 one-dose SRB screen (Melanoma); format: cell-based; conditions: Homo sapiens, single dose 10 µM, 48 h, read-out: Growth inhibition percent (GI %)
[33] = system: M14; assay: NCI-60 one-dose SRB screen (Melanoma); format: cell-based; conditions: Homo sapiens, single dose 10 µM, 48 h, read-out: Growth inhibition percent (GI %)
[34] = system: SK-MEL-28; assay: NCI-60 one-dose SRB screen (Melanoma); format: cell-based; conditions: Homo sapiens, single dose 10 µM, 48 h, read-out: Growth inhibition percent (GI %)
[35] = system: MALME-3M; assay: NCI-60 one-dose SRB screen (Melanoma); format: cell-based; conditions: Homo sapiens, single dose 10 µM, 48 h, read-out: Growth inhibition percent (GI %)
[36] = biological target: hCA XII (Homo sapiens, UniProt O43570); assay: CA inhibitory activity, spectrophotometric p-NPA assay; format: biochemical; conditions: p-NPA substrate, pH 7.5, 25 °C, triplicate; read-out: IC50 (µM) ± SD hCA XII
[37] = system: UO-31; assay: NCI-60 one-dose SRB screen (Renal Cancer); format: cell-based; conditions: Homo sapiens, single dose 10 µM, 48 h, read-out: Growth inhibition percent (GI %)
[38] = system: SN12C; assay: NCI-60 one-dose SRB screen (Renal Cancer); format: cell-based; conditions: Homo sapiens, single dose 10 µM, 48 h, read-out: Growth inhibition percent (GI %)
[39] = system: TK-10; assay: NCI-60 one-dose SRB screen (Renal Cancer); format: cell-based; conditions: Homo sapiens, single dose 10 µM, 48 h, read-out: Growth inhibition percent (GI %)
[40] = system: ACHN; assay: NCI-60 one-dose SRB screen (Renal Cancer); format: cell-based; conditions: Homo sapiens, single dose 10 µM, 48 h, read-out: Growth inhibition percent (GI %)
[41] = system: RXF 393; assay: NCI-60 one-dose SRB screen (Renal Cancer); format: cell-based; conditions: Homo sapiens, single dose 10 µM, 48 h, read-out: Growth inhibition percent (GI %)
[42] = system: CAKI-1; assay: NCI-60 one-dose SRB screen (Renal Cancer); format: cell-based; conditions: Homo sapiens, single dose 10 µM, 48 h, read-out: Growth inhibition percent (GI %)
[43] = system: A498; assay: NCI-60 one-dose SRB screen (Renal Cancer); format: cell-based; conditions: Homo sapiens, single dose 10 µM, 48 h, read-out: Growth inhibition percent (GI %)
[44] = biological target: hCA IX (Homo sapiens, UniProt Q16790); assay: CA inhibitory activity, spectrophotometric p-NPA assay; format: biochemical; conditions: p-NPA substrate, pH 7.5, 25 °C, triplicate; read-out: IC50 (µM) ± SD hCA IX

hCA XII, sequence (O43570 25-354): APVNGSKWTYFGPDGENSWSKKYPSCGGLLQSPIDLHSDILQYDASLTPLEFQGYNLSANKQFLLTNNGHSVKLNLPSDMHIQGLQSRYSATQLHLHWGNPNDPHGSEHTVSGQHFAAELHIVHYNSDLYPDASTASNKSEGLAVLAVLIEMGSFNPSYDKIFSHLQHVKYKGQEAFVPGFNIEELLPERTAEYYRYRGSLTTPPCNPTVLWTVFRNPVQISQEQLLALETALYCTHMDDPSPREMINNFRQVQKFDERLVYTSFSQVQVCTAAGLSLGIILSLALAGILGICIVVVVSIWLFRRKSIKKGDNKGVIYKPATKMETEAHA

## Cc1ccc(-c2nn(-c3ccc(S(N)(=O)=O)cc3)cc2-c2nnc(N)s2)cc1 [Compound 10, 4-[4-(5-Amino-1,3,4-thiadiazol-2-yl)-3-(p-tolyl)-1H-pyrazol-1-yl] benzenesulfonamide]
[1]
  inhibition at 10 µM: 9.66%
[2]
  inhibition at 10 µM: < 5%
[3]
  inhibition at 10 µM: 11.1%
[4]
  inhibition at 10 µM: < 5%
[5]
  inhibition at 10 µM: 10.2%
[6]
  inhibition at 10 µM: 10.2%
[7]
  inhibition at 10 µM: < 5%
[8]
  inhibition at 10 µM: 15.6%
[9]
  inhibition at 10 µM: 7.72%
[10]
  inhibition at 10 µM: 9.42%
[11]
  inhibition at 10 µM: < 5%
[12]
  inhibition at 10 µM: 19.5%
[13]
  inhibition at 10 µM: 30.8%
[14]
  inhibition at 10 µM: < 5%
[15]
  inhibition at 10 µM: 15.3%
[16]
  inhibition at 10 µM: 10.4%
[17]
  inhibition at 10 µM: < 5%
[18]
  inhibition at 10 µM: 5.79%
[19]
  inhibition at 10 µM: < 5%
[20]
  inhibition at 10 µM: < 5%
[21]
  inhibition at 10 µM: 10.5%
other
  melting point: 230 to 234 °C
[22]
  inhibition at 10 µM: < 5%
[23]
  inhibition at 10 µM: < 5%
[24]
  inhibition at 10 µM: < 5%
[25]
  inhibition at 10 µM: < 5%
[26]
  inhibition at 10 µM: < 5%
[27]
  inhibition at 10 µM: < 5%
[28]
  inhibition at 10 µM: 18.5%
[29]
  inhibition at 10 µM: 5.16%
[30]
  inhibition at 10 µM: < 5%
[31]
  inhibition at 10 µM: < 5%
[32]
  inhibition at 10 µM: < 5%
[33]
  inhibition at 10 µM: < 5%
[34]
  inhibition at 10 µM: < 5%
[35]
  inhibition at 10 µM: < 5%
[36]
  IC50: 1.14 µM and 1.15 µM
[37]
  inhibition at 10 µM: 7.96%
[38]
  inhibition at 10 µM: < 5%
[39]
  inhibition at 10 µM: 15.4%
[40]
  inhibition at 10 µM: < 5%
[41]
  inhibition at 10 µM: 9.9%
[42]
  inhibition at 10 µM: 12.1%
[43]
  inhibition at 10 µM: 15.5%
[44]
  IC50: 0.66 µM and 0.663 µM

## Cc1ccc(-c2nn(-c3ccc(S(N)(=O)=O)cc3)cc2-c2n[nH]c(=S)[nH]2)cc1 [Compound 11, 4-[4-(5-Mercapto-1H-1,2,4-triazol-3-yl)-3-(p-tolyl)-1H-pyrazol-1-yl] benzenesulfonamide]
[1]
  inhibition at 10 µM: < 5%
[2]
  inhibition at 10 µM: 15.8%
[3]
  inhibition at 10 µM: < 5%
[4]
  inhibition at 10 µM: 21.1%
[5]
  inhibition at 10 µM: < 5%
[6]
  inhibition at 10 µM: < 5%
[7]
  inhibition at 10 µM: 9.56%
[8]
  inhibition at 10 µM: 8.18%
[9]
  inhibition at 10 µM: 13%
[10]
  inhibition at 10 µM: 5.33%
[11]
  inhibition at 10 µM: 9.95%
[12]
  inhibition at 10 µM: 23.9%
[13]
  inhibition at 10 µM: < 5%
[14]
  inhibition at 10 µM: < 5%
[15]
  inhibition at 10 µM: < 5%
[16]
  inhibition at 10 µM: < 5%
[17]
  inhibition at 10 µM: < 5%
[18]
  inhibition at 10 µM: < 5%
[19]
  inhibition at 10 µM: < 5%
[20]
  inhibition at 10 µM: < 5%
[21]
  inhibition at 10 µM: < 5%
other
  melting point: 255 to 257 °C
[22]
  inhibition at 10 µM: < 5%
[23]
  inhibition at 10 µM: < 5%
[24]
  inhibition at 10 µM: < 5%
[25]
  inhibition at 10 µM: < 5%
[26]
  inhibition at 10 µM: < 5%
[27]
  inhibition at 10 µM: < 5%
[28]
  inhibition at 10 µM: < 5%
[29]
  inhibition at 10 µM: < 5%
[30]
  inhibition at 10 µM: < 5%
[31]
  inhibition at 10 µM: 12.9%
[32]
  inhibition at 10 µM: < 5%
[33]
  inhibition at 10 µM: < 5%
[34]
  inhibition at 10 µM: < 5%
[35]
  inhibition at 10 µM: < 5%
[36]
  IC50: 0.33 µM and 0.332 µM
[37]
  inhibition at 10 µM: < 5%
[38]
  inhibition at 10 µM: 7.65%
[39]
  inhibition at 10 µM: < 5%
[40]
  inhibition at 10 µM: < 5%
[41]
  inhibition at 10 µM: 10.1%
[42]
  inhibition at 10 µM: 11.4%
[43]
  inhibition at 10 µM: < 5%
[44]
  IC50: 0.24 ± 0.011 µM
